Reference: patent US20200390793A1, “COMPOSITIONS AND METHODS USING OLEUROPEIN OR CURCUMIN FOR MUSCLE QUALITY AND/OR MUSCLE MASS” (SOCIETE DES PRODUITS NESTLE S.A., priority 2017, published 2020)

Test system: old rats
Assay: Dietary polyphenol supplementation for 3 months in 20 months-old rats: muscle mass and muscle fiber area (immunofluorescence staining and microscopy)
Assay type: in vivo
Conditions: supplemented diet for 3 months, compared with control and rutin groups
Description: 20 months-old rats were fed either a control diet or the same diet supplemented with curcumin or rutin or oleuropein for 3 months. CON=control diet, RUT=control diet with rutin, OLE=control diet with oleuropein and CUR=control diet with curcumin. Old rats are a good model to assess the effect of nutritional intervention in age related muscle decline. With this model, it can be observed as in human a decrease in muscle mass and function and a change in muscle quality with age. The objective of the study was to determine the effects of curcumin, oleuropein and rutin on muscle quality in old rats and the association with muscle mass. 20 months-old rats have been divided in four groups and received a complete diet supplemented with either curcumin (CUR), oleuropein (OLE) or rutin (RUT) for 3 months. A control group (CON) received cellulose instead of polyphenols. Fiber type was analyzed in muscle by immunofluorescence staining and microscopy. Exact Wilcoxon test associated with Hodges-Lehmann to estimate the difference between groups and Kolmogorov-Smirnov test to assess the difference for the distribution have been performed for statistical analysis.

COc1cc(/C=C/C(=O)CC(=O)/C=C/c2ccc(O)c(OC)c2)ccc1O [CUR, curcumin]
amount of small fibers area (percentage of cells with an area below 700 μm^2, FIG. 3B): lower | fiber crossectionnal area (FIG. 3A): higher | muscle mass: higher
